Entries after “also recorded” stand apart in the source; their conditions may differ.
System: DM/HC pig model
Assay: Diabetic/hypercholesterolemic (DM/HC) pig model: brain histology/IHC, weight and behaviour
Format: in vivo
Experimental: A diabetic/diabetic hypercholestrolemic pig model (DM/HC) was developed that mimics human-like atherosclerosis. Farm pigs weighing 25-30 kg and aged ˜4 months were made diabetic with a single intravenous injection of 125 mg/kg of streptozotocin (Sicor Pharmaceuticals, Irvine, Calif.). After stabilization for 1-2 weeks, the animals with elevated levels of plasma glucose (>150 mg/dl) were fed with atherogenic (high-fat) diet as shown in Table 1 (Animal Specialties, Quakertown, Pa.) to achieve a cholesterol level of approximately […] Maintenance of the cholesterol level was determined by method as shown in Table 2.
On days 1-2, animals were fed normal chow, followed by on days 3-14 animals were fed a diet of 0.5% cholesterol, 2% lard and on day 14, cholesterol levels were measured and the diet adjusted accordingly to increase to 2% cholesterol, 10% lard if cholesterol is <300 mg/dl. Following induction of DM/HC, cholesterol was measured until cholesterol levels are stable between 300 and 800 mg/dl, and following cholesterol stabilization, cholesterol was measured monthly. If cholesterol levels were unstable following initial stabilization phase, the diet of the animal was returned to the initial two-week measurement schedule. Monthly cholesterol levels were determined, including levels of total cholesterol, LDL, HDL, VLDL and triglycerides.
At one month after stabilization of cholesterol at 250-800 mg/d1, the animals were randomized into two experimental groups, DM/HC (hyperglycemia and hypercholesterolemia) group with no treatment and treatment group (10 mg/kg/day of SB-480848, also referred to as 1-(N-(2-(diethylamino)ethyl)-N-(4-(4-trifluoromethylphenyl)benzyl)-aminocarbonylmethyl)-2-(4-fluorobenzyl)thio-5,6-trimethylenepyrimidin-4-one). The animals were sacrificed at 6-month after the randomization. The animal protocol has been approved by the Institutional Animal Care and Use Committee of University of Pennsylvania.
Two diabetic/hypercholesterolemic groups were evaluated: 1. DM/HC group and 2. DM/HC animals receiving Lp-PLA2 inhibitors. The experiments included: the control group (DM/HC group—17 pigs) and the experimental group (DM/HC animals receiving LP-PLA2 inhibitors—20 pigs). In addition blood cholesterol levels were maintained between 300 and 800 mg/dl in experimental animals, this range having been determined to provide a better test model. Blood cholesterol levels were monitored in all animals on a bimonthly basis, as shown in Table 4 and adjustments were made to the fat content of the feed accordingly, as shown in Table 2. The cholesterol and lard percent were in the range of 0.5-2% and 10-25%, respectively, and all animals received feed that contained cholesterol and lard concentration within that range. Blood samples were obtained at baseline, 1 month, 3 months, and 6 months. Less than 1 ml/kg of blood were obtained each time. At the bimonthly blood cholesterol levels tests, levels of total cholesterol, LDL, HDL, VLDL and triglycerides, blood glucose, Lp-PLA2 and […] (PBMCs) were tested (see Table 4).
The animal number, selected to justify the minimum requirement for statistical validity were 2 groups of animals per experiment as follows: 1. Control group (n=17); Diabetic and hyperlipidemic; 2.
Domestic farm pigs, Yorkshire boars, ranging in weight between 25-35 kg were purchased from a local farm and placed in indoor housing under the care of a veterinarian. They were castrated 3-5 days in advance of the study start date. Test pigs were made diabetic by infusing one dose of streptozocin (125 mg/kg) IV in a period of 30 min. […] To avoid the possible onset of initial hypoglycemia, 20 g of glucose powder was added to the feed for the […]. The blood glucose was measured using a glucometer every day before feeding for the first 14 days and then once a week.
Test animals were housed separately from control animals to avoid inter-animal transfer of drug due to colcophagia. […]

[1] = DM/HC pigs, 10 mg/kg/day, brain IHC for pig immunoglobulin
[2] = DM/HC pigs, 10 mg/kg/day, observed during study period vs control non-treated animals

CCN(CC)CCN(Cc1ccc(-c2ccc(C(F)(F)F)cc2)cc1)C(=O)Cn1c(SCc2ccc(F)cc2)nc(=O)c2c1CCC2 [Lp-PLA2 inhibitor, 1-(N-(2-(diethylamino)ethyl)-N-(4-(4-trifluoromethylphenyl)benzyl)-aminocarbonylmethyl)-2-(4-fluorobenzyl)thio-5,6-trimethylenepyrimidin-4-one]
activation of glial cells (DM/HC pigs treated with Lp-PLA2 inhibitor, GFAP as marker): less activation of glial cells | Abeta42 accumulation in vascular SMCs (cerebrovascular amyloidosis) (DM/HC pigs, 10 mg/kg/day, Abeta-42 immunostaining of arterioles): little or no arterial Abeta-42 immunostaining; also recorded: prevented Abeta42 accumulation in vascular SMCs | Abeta-42 accumulation in neurons (immunoreactivity) (DM/HC pigs, 10 mg/kg/day, brain Abeta-42 immunostaining, n=6): immunonegative neurons for Abeta-42; also recorded: no neuronal Abeta-42 immunoreactivity | dendrite collapse (DM/HC pigs, 10 mg/kg/day, brain IHC): no dendrite collapse | Ig binding to neurons [1]: no Ig binding to neurons | Ig leakage from blood vessels [1]: Ig is confined to the lumen of the blood vessels; also recorded: no Ig leakage from blood vessels | DM/HC-induced BBB leakage (DM/HC pigs, 10 mg/kg/day, brain IHC for pig immunoglobulin, n=6): prevents BBB leakage; also recorded: negligible BBB leakage | sick neurons (DM/HC pigs, 10 mg/kg/day, compared with non-treated animals): rarely observed | activity in the cage [2]: increased activity in the cage | response to feeding and handling [2]: respond more alertly to feeding and handling | responsiveness to external stimuli [2]: more responsive to external stimuli

From patent US20150183748A1, “METHODS OF TREATMENT AND PREVENTION OF NEURODEGENERATIVE DISEASES AND DISORDERS” (Thomas Jefferson University, priority 2007, published 2015)
